From patent US11267844B2, “Spirothietane nucleosides” (Janssen Pharmaceutica NV, priority 2017, dated 2022)

Tests used:
HCV polymerase = HCV polymerase (Hepatitis C virus genotype 1b, UniProt Q9WMX2); experiment: Biochemical HCV polymerase inhibition
[1] = target: T1, dengue virus NS5 polymerase domain (DENVpol, serotype 2, New Guinea C strain) (Dengue virus type 2, UniProt P14340); experiment: Dengue virus polymerase inhibition assay; assay type: biochemical, dengue virus serotype 2
T1 construct: The enzyme activity of dengue virus NS5 polymerase domain
Experimental: The enzyme activity of dengue virus NS5 polymerase domain (DENVpol, serotype 2, New Guinea C strain) is measured as an incorporation of tritiated NMP into acid-insoluble RNA products. DENVpol assay reactions contain recombinant enzyme, heteropolymeric RNA, about 0.5 μCi tritiated NTP, 0.33 μM of competing cold NTP, 40 mM HEPES (pH 7.5), 3 mM dithiothreitol, and 2 mM MgCl2. Standard reactions are incubated for 3 hours at 30° C., in the presence of increasing concentration of inhibitor. At the end of the reaction, RNA is precipitated with 10% TCA, and acid-insoluble RNA products are filtered on a size exclusion 96-well plate. After washing of the plate, scintillation liquid is added and radiolabeled RNA products are detected according to standard procedures with a Trilux Topcount scintillation counter. The compound concentration at which the enzyme-catalyzed rate is reduced by 50% (IC50) is calculated by fitting the data to a non-linear regression (sigmoidal).

HCV polymerase, sequence (Q9WMX2 2420-3010): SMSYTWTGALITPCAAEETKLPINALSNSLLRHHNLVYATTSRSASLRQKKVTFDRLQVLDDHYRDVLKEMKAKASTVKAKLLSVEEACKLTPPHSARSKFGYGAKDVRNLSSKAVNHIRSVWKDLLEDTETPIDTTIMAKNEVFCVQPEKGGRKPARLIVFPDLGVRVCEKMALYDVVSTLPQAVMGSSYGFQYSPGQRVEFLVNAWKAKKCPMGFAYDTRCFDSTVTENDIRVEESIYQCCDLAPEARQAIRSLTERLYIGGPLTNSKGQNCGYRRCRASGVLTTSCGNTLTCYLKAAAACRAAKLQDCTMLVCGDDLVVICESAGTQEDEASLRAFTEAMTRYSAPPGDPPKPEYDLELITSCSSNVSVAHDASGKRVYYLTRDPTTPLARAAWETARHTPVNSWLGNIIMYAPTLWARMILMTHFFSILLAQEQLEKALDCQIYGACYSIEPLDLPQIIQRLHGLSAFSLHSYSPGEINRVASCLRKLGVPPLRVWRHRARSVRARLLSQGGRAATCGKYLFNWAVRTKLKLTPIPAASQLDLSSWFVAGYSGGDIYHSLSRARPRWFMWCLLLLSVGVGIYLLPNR

SMILES	IC50 (HCV polymerase)	IC50 [1]
Nc1ccn([C@@H]2O[C@H](COP(=O)(O)OP(=O)(O)OP(=O)(O)O)[C@@H](O)[C@]23CCS3)c(=O)n1 [Compound 59]	320 nM	2.91 µM
Nc1ccn([C@@H]2O[C@](F)(COP(=O)(O)OP(=O)(O)OP(=O)(O)O)[C@@H](O)[C@]23CCS3)c(=O)n1 [Compound 61]	160 nM	2.44 µM
O=c1ccn([C@@H]2O[C@H](COP(=O)(O)OP(=O)(O)OP(=O)(O)O)[C@@H](O)[C@]23CCS3)c(=O)[nH]1 [Compound 58]	740 nM	49.7 µM
O=c1ccn([C@@H]2O[C@](F)(COP(=O)(O)OP(=O)(O)OP(=O)(O)O)[C@@H](O)[C@]23CCS3)c(=O)[nH]1 [Compound 60]	690 nM	> 10 µM
Nc1nc2c(ncn2[C@@H]2O[C@H](COP(=O)(O)OP(=O)(O)OP(=O)(O)O)[C@@H](O)[C@]23CCS3)c(=O)[nH]1 [Compound 63]	180 nM	> 10 µM
